The source of these data is patent US20130272962A1, “STAINING AGENT FOR CORNEAL STAINING” (FLUORON GMBH, priority 2012, published 2013).

Data set [1] is described as follows: Solubility of the dyestuff in liquids for application in the eye. The format is physicochemical. Particulars: for solubility in liquids suitable for application in the anterior and posterior region of the eye: balanced salt solution (BSS), water for injection; for solubility in liquids that are heavier than water: ≧1.01 g/cm^3, e.g. polyethylene glycol.
Data set [2] in a line: Staining of ophthalmic membranes.
The next data set has as its system cornea. Particulars: Ünlü et al. 2000; Gamal Eldin et al. 1999; cited from earlier work.
The subject of another data set is eukaryotes. Particulars: cited from earlier work.
The conditions of data set [3]: Ito et al. 2004; cited from earlier work.
The test system of data set [4] is Human Retinal Pigment Epithelium in Vitro. Particulars: Wu et al. 2005; cited from earlier work.
Data set [5] has as its system Human Corneal Epithelial Cells. To be noted: intensified by interaction with light; Kim et al. 1999; cited from earlier work.
For data set [6] the following is noted: Cahen 1964; product information BLURHEX; cited from earlier work.
Data set [7] deals with Human Retinal Pigment Epithelial Cells. Particulars: Veckeneer et al. 2002 (rabbit eyes); Rezai et al. 2004; cited from earlier work.

Bounds are passed on as bounds.

For the compound `CCN(CC)c1ccc(C(=C2C=CC(=[N+](CC)Cc3cccc(S(=O)(=O)[O-])c3)C=C2)c2ccc(N(CC)Cc3cccc(S(=O)(=O)O)c3)cc2)cc1` [Acid Violet 17], in [1], the “solubility in liquids suitable for application in the anterior and posterior region of the eye” value is recorded as “very readily soluble”; the “solubility in liquids that are heavier than water” value is listed as “very readily soluble”. Moreover, in data set [2], the “coloring of the inner limiting membrane (ILM) and the anterior and posterior lens capsules” value is “capable of coloring both the inner limiting membrane (ILM) and the anterior and posterior lens capsules”; the “staining of the cornea or constituents thereof” value is “capable of staining the cornea or constituents thereof”.

On to `CCOc1ccc(Nc2ccc(/C(=C3C=C/C(=[N+](/CC)Cc4cccc(S(=O)(=O)[O-])c4)C=C/3C)c3ccc(N(CC)Cc4cccc(S(=O)(=O)[O-])c4)cc3C)cc2)cc1.[Na+]` [BBG, Brilliant Blue G], for which, in [1], the “solubility in liquids suitable for application in the anterior and posterior region of the eye” value is given as “very readily soluble”; the “solubility in liquids that are heavier than water” value was “very readily soluble”. Besides, in data set [2], the “coloring of the inner limiting membrane (ILM) and the anterior and posterior lens capsules” value is “capable of coloring both the inner limiting membrane (ILM) and the anterior and posterior lens capsules”; the “staining of the cornea or constituents thereof” value is given as “capable of staining the cornea or constituents thereof”.

As to `CN(C)c1ccc(C(=C2C=CC(=[N+](C)C)C=C2)c2ccc(N(C)C)cc2)cc1` [Gentian violet], the corneal oedema result in the data set on cornea is on record as “cause corneal oedemas”.

With `[2H]O[2H]` [Heavy water, D2O], in the data set with eukaryotes, the “concentration in water tolerated by eukaryotes” value was not above 20%.

For the compound `CC1(C)C(/C=C/C=C/C=C/C=C2\N(CCCCS(=O)(=O)O)c3ccc4ccccc4c3C2(C)C)=[N+](CCCCS(=O)(=O)[O-])c2ccc3ccccc3c21` [ICG, indocyanine green], the cytotoxicity result in [3] was “cytotoxic”. Further, the phototoxicity entry in data set [4] is listed as “phototoxic”.

In the case of `O=C([O-])c1c(Cl)c(Cl)c(Cl)c(Cl)c1-c1c2cc(I)c(=O)c(I)c-2oc2c(I)c([O-])c(I)cc12.[Na+].[Na+]` [Rose bengal], the cytotoxicity entry in data set [5] was “cytotoxic”.

`Cc1cc(-c2ccc(/N=N/c3c(S(=O)(=O)O)cc4cc(S(=O)(=O)O)cc(N)c4c3O)c(C)c2)ccc1/N=N/c1c(S(=O)(=O)O)cc2cc(S(=O)(=O)O)cc(N)c2c1O` [trypan blue]: the “teratogenic or mutagenic effect” value in data set [6] is given as “teratogenic or mutagenic effect”. Besides, the cytotoxicity result in data set [7] is recorded as “cytotoxic”.
